According to patent publication US20140328757A1, “COMPOSITIONS COMPRISING ASCORBIC ACID AND AN IMAGING AGENT AND RELATED METHODS” (Lantheus Medical Imaging, Inc., priority 2011, published 2014):

Assays:
[1] = pH and the chemical integrity (rate of non-radioactive impurity formation) of the non-radioactive congener; assay type: physicochemical; details: ascorbic acid 50 mg/mL, congener 5 μg/mL, ethanol 5%, treated with [18F]NaF
Method: (§1) Both chemical integrity and overall stability of a radiopharmaceutical composition is measured through determination of the change in RCP of the labeled compound over time using ITLC or more preferably HPLC. The advantage of using HPLC is that impurities caused by radiolytic degradation may be readily separated from the labeled compound under certain chromatographic conditions. […] Several HPLC methods have been developed for monitoring the stability of radiopharmaceutical compositions of the present invention:
(§2) Analytical HPLC was performed on an Agilent Technologies 1100 LC containing a spectrophotometric detection system. Non-radiochemical impurities were evaluated at 295 nm using a Waters Zorbax SB-C18 column (4.6×50 mm, 1.8 μm) with an 8%/min gradient from 20-100% MeCN containing 0.1% formic acid and 10% H2O at 1 mL/min
The chemical integrity of radiopharmaceutical compositions containing the non-radioactive congener of the imaging agent (2-(tert-butyl)-4-chloro-5-((4-((2-fluoroethoxy)methyl)benzyl)oxy)pyridazin-3(2H)-one) was assessed over a range of pH values. […] The resulting solutions were treated with [^18F]NaF then monitored for changes in chemical purity (non-radioactive impurities) over time using the HPLC methods outlined in Example 5.

[2] = cited from earlier work
[3] = Stability (radiochemical purity over time by HPLC) of radiopharmaceutical compositions over a range of ascorbic acid and radioactivity concentrations; assay type: physicochemical; details: pH 5.8
From the text: The radiochemical purity (RCP) of a labeled compound (i.e., as in Example 3) is known to be dependent on certain conditions of its preparation including, but not limited to, reaction temperature, solution pH and overall synthesis time. Once prepared with high RCP, the labeled compound is formulated into a radiopharmaceutical composition designed to stabilize the labeled compound over time. Certain radiopharmaceutical compositions of the present invention are effective in maintaining the stability of labeled compounds for up to 12 h.
as §1
Analytical HPLC was performed on an Agilent Technologies 1100 LC containing a radiometric detection system. Radiochemical impurities were evaluated using a Berthold radiation detector and a Waters Zorbax SB-C18 column (4.6×50 mm, 1.8 μm) using an isocratic elution (45:55 H2O/MeCN) at 1 mL/min
as §2
Analytical HPLC was performed on an Agilent Technologies 1100 LC containing both radiometric and spectrophotometric detection systems. Radiochemical impurities were evaluated using a Raytest GabiStar radiation detector and non-radiochemical impurities were evaluated at 295 nm both using a Waters Zorbax SB-C18 column (4.6×50 mm, 1.8 μm) with a 6%/min gradient from 20-50% MeCN, followed by a 1.4%/min gradient from 50-60% MeCN, followed by a 2%/min gradient from 60-70% MeCN each containing 0.1% formic acid and 10% H2O at 1 mL/min.
Analytical HPLC was performed on an Agilent Technologies 1100 LC containing both radiometric and spectrophotometric detection systems. Radiochemical impurities were evaluated using a Raytest GabiStar radiation detector and non-radiochemical impurities were evaluated at 295 nm both using a Waters Zorbax SB-C18 column (4.6×50 mm, 1.8 μm) with a 30%/min gradient from 30-60% MeCN, followed by a 2 min isocratic hold at 60% MeCN, followed by a 5%/min gradient from 60-80% MeCN each containing 0.1% trifluoroacetic acid and 10% H2O at 1 mL/min
Aqueous [^18F]fluoride, as prepared in Example 1, was filtered through an anion exchange column to remove unreacted [^18O]H2O; [^18F]fluoride was retained within the […] resin matrix. The column was then washed with aqueous Et4NHCO3 with transfer to the reaction vessel. The resulting solution was diluted with MeCN then concentrated to dryness using elevated temperature and reduced pressure. The mixture of anhydrous [^18F]Et4NF and Et4NHCO3 thus obtained was treated with the acetonitrile solution of the imaging agent precursor as prepared in Example 2, then warmed to 85-120° C. and maintained 5-20 min. After cooling, the solution was diluted with H2O or H2O/MeCN then directly purified by HPLC using a 45:55 H2O/MeCN eluent. The main product peak was collected and diluted with ascorbic acid (10 mL of a 0.28 M solution; pH 2).
was retained within the C18 resin matrix and the filtrate discarded. The cartridge was successively washed with ascorbic acid (10 mL of a 0.28 M solution in H2O; pH 2), the filtrate discarded, then absolute EtOH (≦0.50 mL), and the filtrate collected. […]

[4] = pH and the stability (radiochemical purity over time) of an imaging agent; assay type: physicochemical; details: ascorbic acid solutions with higher pH values (pH 5.8 and 6.5) versus more acidic compositions (pH 2.4-4.6)
Method: (§3) was then collected, diluted with an ascorbic acid solution (10-15 mL), then passed through a C18 Sep-Pak® cartridge, previously conditioned with 10 mL of ethanol followed by 10 mL of an ascorbic acid solution; The imaging agent was retained within the C18 resin matrix and the filtrate discarded. The cartridge was then successively washed with an ascorbic acid solution (10 mL), the filtrate discarded, then absolute ethanol (≦0.5 mL) and the filtrate collected. The resulting ethanol concentrate of the imaging agent was then diluted with an ascorbic acid solution prior to use.
(§4) Both chemical integrity and overall stability of a radiopharmaceutical composition is measured through determination of the change in RCP of the labeled compound over time using ITLC or more preferably HPLC. The advantage of using HPLC is that impurities caused by radiolytic degradation may be readily separated from the labeled compound under certain chromatographic conditions. […]
Analytical HPLC was performed on an Agilent Technologies 1100 LC containing a radiometric detection system. Radiochemical impurities were evaluated using a Berthold radiation detector and a Waters Zorbax SB-C18 column (4.6×50 mm, 1.8 μm) using an isocratic elution (45:55 H2O/MeCN) at 1 mL/min […]
The stability of radiopharmaceutical compositions containing an imaging agent was assessed over a range of pH values. […]

[5] = Concentration of ascorbic acid and the stability (radiochemical purity over time) of an imaging agent; assay type: physicochemical; details: pH 5.8
Method: as §3, §4
The stability of radiopharmaceutical compositions containing an imaging agent was assessed over a range of ascorbic acid concentration values. […] Each solution was then utilized in the preparation of the imaging agent described in Example 4, and the resulting compositions monitored for changes in radiochemical purity over time using the HPLC methods described in Example 5.

CC(C)(C)n1ncc(OCc2ccc(COCCF)cc2)c(Cl)c1=O [2-(tert-butyl)-4-chloro-5-((4-((2-fluoroethoxy)methyl)benzyl)oxy)pyridazin-3(2H)-one]
Reaction order of formation of certain non-radioactive impurities (FIG. 2) [1]: first order | Reduction in the rate of impurity formation (non-radioactive impurities, FIG. 2) ([1]; over the pH range considered (4.0-8.2)): ten-fold reduction

O=C1O[C@H]([C@@H](O)CO)C(O)=C1O [ascorbic acid]
pKa [2]: about 4.2

CC(C)(C)n1ncc(OCc2ccc(COCC[18F])cc2)c(Cl)c1=O [imaging agent, 2-tert-butyl-4-chloro-5-[4-(2-[18F]fluoro-ethoxymethyl)-benzyloxy]-2H-pyridazin-3-one]
Radiochemical Purity ([3]; 0 h, ascorbic acid 30 mg/mL, 29.5 mCi/mL, Siemens GN module): 100.0% | Radiochemical Purity ([3]; 0 h, ascorbic acid 30 mg/mL, 68.0 mCi/mL, Eckert & Ziegler module): 100.0% | Radiochemical Purity ([3]; 0 h, ascorbic acid 50 mg/mL, 44.8 mCi/mL, Eckert & Ziegler module): 100.0% | Radiochemical Purity ([3]; 0 h, ascorbic acid 50 mg/mL, 47.0 mCi/mL, Siemens GN module): 100.0% | Radiochemical Purity ([3]; 0 h, ascorbic acid 50 mg/mL, 50.0 mCi/mL, Siemens RN module): 100.0% | Radiochemical Purity ([3]; 0 h, ascorbic acid 50 mg/mL, 65.4 mCi/mL, GE MX module): 100.0% | Radiochemical Purity ([3]; 0 h, ascorbic acid 50 mg/mL, 115.9 mCi/mL, Siemens GN module): 99.7% | Radiochemical Purity ([3]; 3 h, ascorbic acid 30 mg/mL, 29.5 mCi/mL, Siemens GN module): 100.0% | Radiochemical Purity ([3]; 3 h, ascorbic acid 30 mg/mL, 68.0 mCi/mL, Eckert & Ziegler module): 97.6% | Radiochemical Purity ([3]; 3 h, ascorbic acid 50 mg/mL, 44.8 mCi/mL, Eckert & Ziegler module): 100.0% | Radiochemical Purity ([3]; 3 h, ascorbic acid 50 mg/mL, 47.0 mCi/mL, Siemens GN module): 100.0% | Radiochemical Purity ([3]; 3 h, ascorbic acid 50 mg/mL, 50.0 mCi/mL, Siemens RN module): 98.2% | Radiochemical Purity ([3]; 3 h, ascorbic acid 50 mg/mL, 65.4 mCi/mL, GE MX module): 100.0% | Radiochemical Purity ([3]; 3 h, ascorbic acid 50 mg/mL, 115.9 mCi/mL, Siemens GN module): 97.1% | Radiochemical Purity ([3]; 6 h, ascorbic acid 30 mg/mL, 29.5 mCi/mL, Siemens GN module): 100.0% | Radiochemical Purity ([3]; 6 h, ascorbic acid 30 mg/mL, 68.0 mCi/mL, Eckert & Ziegler module): 96.7% | Radiochemical Purity ([3]; 6 h, ascorbic acid 50 mg/mL, 44.8 mCi/mL, Eckert & Ziegler module): 100.0% | Radiochemical Purity ([3]; 6 h, ascorbic acid 50 mg/mL, 47.0 mCi/mL, Siemens GN module): 99.2% | Radiochemical Purity ([3]; 6 h, ascorbic acid 50 mg/mL, 50.0 mCi/mL, Siemens RN module): 99.0% | Radiochemical Purity ([3]; 6 h, ascorbic acid 50 mg/mL, 65.4 mCi/mL, GE MX module): 98.7% | Radiochemical Purity ([3]; 6 h, ascorbic acid 50 mg/mL, 115.9 mCi/mL, Siemens GN module): 97.1% | Radiochemical Purity ([3]; 9 h, ascorbic acid 30 mg/mL, 29.5 mCi/mL, Siemens GN module): 100.0% | Radiochemical Purity ([3]; 9 h, ascorbic acid 30 mg/mL, 68.0 mCi/mL, Eckert & Ziegler module): 96.2% | Radiochemical Purity ([3]; 9 h, ascorbic acid 50 mg/mL, 44.8 mCi/mL, Eckert & Ziegler module): 100.0% | Radiochemical Purity ([3]; 9 h, ascorbic acid 50 mg/mL, 47.0 mCi/mL, Siemens GN module): 99.4% | Radiochemical Purity ([3]; 9 h, ascorbic acid 50 mg/mL, 50.0 mCi/mL, Siemens RN module): 98.0% | Radiochemical Purity ([3]; 9 h, ascorbic acid 50 mg/mL, 65.4 mCi/mL, GE MX module): 99.3% | Radiochemical Purity ([3]; 9 h, ascorbic acid 50 mg/mL, 115.9 mCi/mL, Siemens GN module): 96.0% | Radiochemical Purity ([3]; 12 h, ascorbic acid 30 mg/mL, 29.5 mCi/mL, Siemens GN module): 100.0% | Radiochemical Purity ([3]; 12 h, ascorbic acid 30 mg/mL, 68.0 mCi/mL, Eckert & Ziegler module): 96.1% | Radiochemical Purity ([3]; 12 h, ascorbic acid 50 mg/mL, 44.8 mCi/mL, Eckert & Ziegler module): 100.0% | Radiochemical Purity ([3]; 12 h, ascorbic acid 50 mg/mL, 47.0 mCi/mL, Siemens GN module): 99.5% | Radiochemical Purity ([3]; 12 h, ascorbic acid 50 mg/mL, 50.0 mCi/mL, Siemens RN module): 98.2% | Radiochemical Purity ([3]; 12 h, ascorbic acid 50 mg/mL, 65.4 mCi/mL, GE MX module): 96.9% | Radiochemical Purity ([3]; 12 h, ascorbic acid 50 mg/mL, 115.9 mCi/mL, Siemens GN module): 96.0% | Initial RCP and variability in RCP over time ([3]; over 30 to 50 mg/mL ascorbic acid and 30 to 115 mCi/mL): do not significantly change | Initial RCP and change in RCP over time (FIG. 1) [4]: markedly less initial stability and stability to storage | RCP (FIG. 3) ([5]; ascorbic acid 20 mg/mL): overall decrease in RCP | Initial RCP and variability in RCP over time (FIG. 3) ([5]; ascorbic acid 200 to 50 mg/mL): do not significantly change
